Laboratory results from US12043599B2, “Herbicidal compounds” (SYNGENTA PARTICIPATIONS AG, priority 2018, dated 2024).

Tests used:
Format in all cases: in vivo
Conditions in all cases: 250 g/h, evaluated after 13 days
[1] = system: Alopecurus myosuroides (ALOMY); experiment: Pre-emergence herbicidal glasshouse test, percentage damage
Method in brief: (§1)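 Pot-grown grass weeds in standard soil were sprayed 1 day after sowing (pre-emergence) or after 8 days (post-emergence) with compound at 250 g/h in acetone/water (50:50) with 0.5% Tween 20. Glasshouse conditions were 24/16 °C day/night, 14 h light, 65% humidity. Damage was scored after 13 days on a five-point scale.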

[2] = system: Avena fatua (AVEFA); experiment: as above
Method in brief: as §1

[3] = system: Echinochloa crus-galli (ECHCG); experiment: as above
Method in brief: as §1

[4] = system: Lolium perenne (LOLPE); experiment: as above
Method in brief: as §1

[5] = system: Setaria faberi (SETFA); experiment: as above
Method in brief: as §1

[6] = system: Setaria faberi (SETFA); experiment: Post-emergence herbicidal glasshouse test, percentage damage
Method in brief: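 Wheat, barley and Setaria faberi were sprayed post-emergence after 8 days' growth (24/16 °C, 14 h light, 65% humidity) with compound in acetone/water (50:50) containing 0.5% Tween 20, at the indicated rates. On wheat, compounds were also applied with cloquintocet-mexyl at 50 g/ha. Damage was scored after 13 days on a five-point scale (5=80-100% to 1=0-19%).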

[7] = system: Alopecurus myosuroides (ALOMY); experiment: as above
Method in brief: as §1

[8] = system: Avena fatua (AVEFA); experiment: as above
Method in brief: as §1

[9] = system: Echinochloa crus-galli (ECHCG); experiment: as above
Method in brief: as §1

[10] = system: Lolium perenne (LOLPE); experiment: as above
Method in brief: as §1

| Compound | ALOMY PRE percentage damage (five point scale) [1] | AVEFA PRE percentage damage (five point scale) [2] | ECHCG PRE percentage damage (five point scale) [3] | LOLPE PRE percentage damage (five point scale) [4] | SETFA PRE percentage damage (five point scale) [5] | SETFA POST percentage damage (five point scale) [6] | ALOMY POST percentage damage (five point scale) [7] | AVEFA POST percentage damage (five point scale) [8] | ECHCG POST percentage damage (five point scale) [9] | LOLPE POST percentage damage (five point scale) [10] |
| --- | --- | --- | --- | --- | --- | --- | --- | --- | --- | --- |
| CC#Cc1cc(C)c(C2C(=O)CC3(CCN(C(=O)Nc4ncccc4C)CC3)CC2=O)c(C)c1 [Compound A177] | 2 (2=20-39%) | 4 (4=60-79%) | 5 (5=80-100%) | 5 (5=80-100%) | 5 (5=80-100%) | 5 (5=80-100%) | 4 (4=60-79%) | 5 (5=80-100%) | 5 (5=80-100%) | 5 (5=80-100%) |
| CC#Cc1cc(C)c(C2C(=O)CC3(CCN(C(=O)CCn4cccn4)CC3)CC2=O)c(C)c1 [Compound A195] | 4 (4=60-79%) | 5 (5=80-100%) | 2 (2=20-39%) | 5 (5=80-100%) | 5 (5=80-100%) | 5 (5=80-100%) | 5 (5=80-100%) | 5 (5=80-100%) | 5 (5=80-100%) | 5 (5=80-100%) |
| CC#Cc1cc(C)c(C2C(=O)CC3(CCN(C(=O)C4=COCCC4)CC3)CC2=O)c(C)c1 [Compound A175] | 5 (5=80-100%) | 4 (4=60-79%) | 5 (5=80-100%) | 5 (5=80-100%) | 5 (5=80-100%) | 5 (5=80-100%) | 5 (5=80-100%) | 5 (5=80-100%) | 5 (5=80-100%) | 5 (5=80-100%) |
| CC#Cc1cc(C)c(C2C(=O)CC3(CCN(C(=O)Cc4cccnn4)CC3)CC2=O)c(C)c1 [Compound A103] | 4 (4=60-79%) | 4 (4=60-79%) | 5 (5=80-100%) | 4 (4=60-79%) | 5 (5=80-100%) | 5 (5=80-100%) | 5 (5=80-100%) | 5 (5=80-100%) | 5 (5=80-100%) | 5 (5=80-100%) |
| CC#Cc1cc(C)c(C2C(=O)CC3(CCN(C(=O)NC(=O)c4ccc(F)cn4)CC3)CC2=O)c(C)c1 [Compound A157] | 3 (3=40-59%) | 2 (2=20-39%) | 5 (5=80-100%) | 5 (5=80-100%) | 5 (5=80-100%) | 5 (5=80-100%) | 5 (5=80-100%) | 5 (5=80-100%) | 5 (5=80-100%) | 5 (5=80-100%) |
| CC#Cc1cc(C)c(C2C(=O)CC3(CCN(C(=O)COCCOC)CC3)CC2=O)c(C)c1 [Compound A147] | 4 (4=60-79%) | 3 (3=40-59%) | 5 (5=80-100%) | 5 (5=80-100%) | 5 (5=80-100%) | 5 (5=80-100%) | 5 (5=80-100%) | 5 (5=80-100%) | 5 (5=80-100%) | 5 (5=80-100%) |
| CC#Cc1cc(C)c(C2C(=O)CC3(CCN(C(=O)c4cccc(C#N)n4)CC3)CC2=O)c(C)c1 [Compound A178] | 4 (4=60-79%) | 5 (5=80-100%) | 4 (4=60-79%) | 5 (5=80-100%) | 5 (5=80-100%) | 5 (5=80-100%) | 5 (5=80-100%) | 5 (5=80-100%) | 5 (5=80-100%) | 5 (5=80-100%) |
| CC#Cc1cc(C)c(C2C(=O)CC3(CCN(C(=O)[C@@H]4COCCO4)CC3)CC2=O)c(C)c1 [Compound A174] | 5 (5=80-100%) | 5 (5=80-100%) | 5 (5=80-100%) | 5 (5=80-100%) | 5 (5=80-100%) | 5 (5=80-100%) | 5 (5=80-100%) | 5 (5=80-100%) | 5 (5=80-100%) | 5 (5=80-100%) |
| CC#Cc1cc(C)c(C2C(=O)CC3(CCN(C(=O)Cc4cnccn4)CC3)CC2=O)c(C)c1 [Compound A104] | 4 (4=60-79%) | 5 (5=80-100%) | 5 (5=80-100%) | 5 (5=80-100%) | 5 (5=80-100%) | 5 (5=80-100%) | 5 (5=80-100%) | 5 (5=80-100%) | 5 (5=80-100%) | 5 (5=80-100%) |
| CC#Cc1cc(C)c(C2=C(OC(=O)c3ccncc3)CC3(CCN(C(=O)c4ccncc4)CC3)CC2=O)c(C)c1 [Compound P4] | 5 (5=80-100%) | 4 (4=60-79%) | 5 (5=80-100%) | 5 (5=80-100%) | 5 (5=80-100%) | 5 (5=80-100%) | 5 (5=80-100%) | 5 (5=80-100%) | 5 (5=80-100%) | 5 (5=80-100%) |
| CC#Cc1cc(C)c(C2C(=O)CC3(CCN(S(=O)(=O)CC)CC3)CC2=O)c(OC)c1 [Compound A72] | 5 (5=80-100%) | 5 (5=80-100%) | 5 (5=80-100%) | 5 (5=80-100%) | 5 (5=80-100%) | 5 (5=80-100%) | 5 (5=80-100%) | 5 (5=80-100%) | 5 (5=80-100%) | 5 (5=80-100%) |
| CC#Cc1cc(C)c(C2C(=O)CC3(CCN(c4ncccn4)CC3)CC2=O)c(C)c1 [Compound A37] | 5 (5=80-100%) | 4 (4=60-79%) | 5 (5=80-100%) | 5 (5=80-100%) | 5 (5=80-100%) | 5 (5=80-100%) | 5 (5=80-100%) | 5 (5=80-100%) | 5 (5=80-100%) | 5 (5=80-100%) |
| CC#Cc1cc(C)c(C2C(=O)CC3(CCN(C(=O)c4cc(C(F)(F)F)ccn4)CC3)CC2=O)c(C)c1 [Compound A90] | 5 (5=80-100%) | 5 (5=80-100%) | 5 (5=80-100%) | 5 (5=80-100%) | 5 (5=80-100%) | 5 (5=80-100%) | 5 (5=80-100%) | 5 (5=80-100%) | 5 (5=80-100%) | 5 (5=80-100%) |
| CC#Cc1cc(C)c(C2C(=O)CC3(CCN(C(=O)[C@@H](C)O)CC3)CC2=O)c(C)c1 [Compound A156] | 5 (5=80-100%) | 5 (5=80-100%) | 5 (5=80-100%) | 5 (5=80-100%) | 5 (5=80-100%) | 5 (5=80-100%) | 5 (5=80-100%) | 5 (5=80-100%) | 5 (5=80-100%) | 5 (5=80-100%) |
